Reference: BindingDB's records for doi:10.1021/jm00157a006 (1987)
pIC50: −log10 of the molar value. Non-standard residues stand in square brackets, D forms with d. Residues, ends and D or L forms follow the SMILES beside them. *: point of attachment. Ala(1-Adamantyl) = N[C@@H](CC12CC3CC(CC(C3)C1)C2)C(=O)O; Sta = CC(C)C[C@H](N)[C@@H](O)CC(=O)O; Cbz = O=C(OCc1ccccc1)*; Boc = CC(C)(C)OC(=O)*

Key:
[1] = biological target: Renin (Sus scrofa); experiment: Inhibition of hog […] plasma renin activity
[2] = biological target: Renin (Sus scrofa); experiment: In vitro inhibitory activity against hog plasma renin

SMILES	pIC50 [1]	pIC50 [2]
COC(=O)C[C@H](O)[C@H](CC(C)C)NC(=O)[C@H](C)NC(=O)C[C@H](O)[C@H](CC(C)C)NC(=O)[C@@H](NC(=O)[C@H](Cc1c[nH]c2ccccc12)NC(=O)OCc1ccccc1)C(C)C [4-[2-(4-{2-[2-Benzyloxycarbonylamino-3-(1H-indol-3-yl)-propionylamino]-3-methyl-butyrylamino}-3-hydroxy-6-methyl-heptanoylamino)-propionylamino]-3-hydroxy-6-methyl-heptanoic acid methyl ester] (Cbz-WV[Sta]A[Sta]-OMe)	7.82	
COC(=O)C[C@H](O)[C@H](CC(C)C)NC(=O)[C@H](C)NC(=O)C[C@H](O)[C@H](CC(C)C)NC(=O)[C@H](Cc1c[nH]cn1)NC(=O)[C@H](CC12CC3CC(CC(C3)C1)C2)NC(=O)OC(C)(C)C [4-(2-{4-[2-(3-Adamantan-1-yl-2-tert-butoxycarbonylamino-propionylamino)-3-(1H-imidazol-4-yl)-propionylamino]-3-hydroxy-6-methyl-heptanoylamino}-propionylamino)-3-hydroxy-6-methyl-heptanoic acid methyl ester] (Boc-[Ala(1-Adamantyl)]H[Sta]A[Sta]-OMe)		6.22
COC(=O)C[C@H](O)[C@H](CC(C)C)NC(=O)[C@H](C)NC(=O)C[C@H](O)[C@H](CC(C)C)NC(=O)[C@H](Cc1ccccc1)NC(=O)[C@H](Cc1ccccc1)NC(=O)OC(C)(C)C [4-(2-{4-[2-(2-tert-Butoxycarbonylamino-3-phenyl-propionylamino)-3-phenyl-propionylamino]-3-hydroxy-6-methyl-heptanoylamino}-propionylamino)-3-hydroxy-6-methyl-heptanoic acid methyl ester]		7.28
